Results as given in publication PMC11062899, “De novo development of small cyclic peptides that are orally bioavailable” (Nature Chemical Biology, 2023).
Where “and” joins values, the source holds several entries; their conditions need not be identical. Identical values can stand only once. One block for each compound: values may come before it.

Legend:
[1] = Metabolic stability in rat liver microsomes (RLMs); conditions: rat, microsomes
rat α-thrombin = target: T1, rat α-thrombin (Rattus norvegicus, UniProt P18292); assay: Protease inhibition, Ki for rat α-thrombin (fluorogenic substrate Z-Gly-Gly-Arg-AMC); type: biochemical; conditions: replicates R1-R3
T1 construct: rat α-thrombin (Molecular Innovations) were used at final concentrations of 2 nM and 3 nM; purchased Molecular Innovations
Outline: (§1)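 Inhibition was measured as AMC fluorescence from 50 μM substrate, monitored for 30 min at 25 °C, relative to a peptide-free control. Human and rat enzymes were present at 2 nM and 3 nM final, respectively, in 50 mM Tris-HCl pH 7.4, 150 mM NaCl, 10 mM MgCl2, 1 mM CaCl2. Ki derives from fitted IC50 via Cheng–Prusoff.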

[2] = Peptide stability in simulated intestinal fluid (SIF); type: in vitro ADME, porcine; conditions: simulated gi fluid; 8 h, 37 °C, pH 6.8; read-out: Proteolytic stability: SIF (8 h) % remaining
Outline: (§2)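 Peptide from a 1 mM DMSO stock was added to fluid pre-warmed at 37 °C. SGF was pH 1.2 NaCl with porcine pepsin (0.32 g per 100 ml), and SIF was pH 6.8 potassium phosphate with porcine pancreatin (1 g per 100 ml). Supernatant peptide was quantified by LC–MS, with residual expressed as T1/T0.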

porcine pancreatin = assay: as above; type: in vitro ADME; conditions: after 8 h vs 0 h (TIC); average of R1-R3
Outline: as §2

[3] = Passive artificial membrane permeability (PAMPA); conditions: for PAMPA permeability: % permeability: 50 μM, 12–18 h, acceptor concentration relative to equilibrium; for Papp at 50 μM / Permeability% Average / Permeability% R1 / Permeability% R3: PAMPA; for Papp at 50 μM: pH 7.4; for Permeability% Average: average of R1-R3; for Permeability% R1: replicate R1; for Permeability% R1 / Permeability% R3: TIC of top well sample relative to sample at theoretical equilibrium; for Permeability% R3: replicate R3
human α-thrombin = human α-thrombin (Homo sapiens, UniProt P00734); assay: Protease inhibition, Ki for human α-thrombin (fluorogenic substrate Z-Gly-Gly-Arg-AMC); type: biochemical; conditions: replicates R1-R3
Outline: as §1

porcine pepsin = target: T2, porcine pepsin (Sus scrofa, UniProt P00791); assay: Peptide stability in simulated gastric fluid (SGF); type: in vitro ADME; conditions: for SGF stability, Residual peptide Average / SGF stability, Residual peptide: after 8 h vs 0 h (TIC); for SGF stability, Residual peptide Average: average of R1-R3; for SGF stability, Residual peptide: single replicates R1-R3; for remaining at 8 h: simulated gi fluid, 37 °C, pH 1.2, read-out: Proteolytic stability: SGF (8 h) % remaining
T2 construct: 0.32 g of porcine pepsin (Sigma-Aldrich, P7125) was dissolved under gentle agitation; purchased Sigma-Aldrich P7125
T2 sequence (P00791 60-385): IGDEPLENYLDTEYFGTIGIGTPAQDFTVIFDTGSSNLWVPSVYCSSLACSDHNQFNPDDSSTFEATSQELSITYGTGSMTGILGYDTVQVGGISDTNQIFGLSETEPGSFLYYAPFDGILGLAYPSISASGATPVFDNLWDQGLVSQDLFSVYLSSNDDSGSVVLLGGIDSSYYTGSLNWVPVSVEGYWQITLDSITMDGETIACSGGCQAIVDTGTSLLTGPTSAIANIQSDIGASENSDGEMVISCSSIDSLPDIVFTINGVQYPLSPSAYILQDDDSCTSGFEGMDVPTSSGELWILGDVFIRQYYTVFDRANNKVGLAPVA
Outline: as §2

[4] = CL (ul/min/mg protein) R1, RLM CL, replicate R1
[5] = CL (ul/min/mg protein) R2, RLM CL, replicate R2
[6] = CL (ul/min/mg protein) R3, RLM CL, replicate R3
[7] = Half Life (min) R1, RLM metabolic stability, replicate R1, 0-60 min
[8] = Half Life (min) R2, RLM metabolic stability, replicate R2, 0-60 min
[9] = Half Life (min) R3, RLM metabolic stability, replicate R3, 0-60 min
[10] = Metabolic stability: RLM CL (ul/min/mg), RLMs, mean and SD, three measurements
[11] = peptide 1.33E+02 uM, slope of proteolytic substrate cleavage over time

microsomal CLint [1, 4]: 79.9 µL/min/mg
microsomal CLint [1, 5]: 59.7 µL/min/mg
microsomal CLint [1, 6]: 75.2 µL/min/mg
half-life [1, 7]: 17.3 min
half-life [1, 8]: 23.2 min
half-life [1, 9]: 18.4 min
half-life ([1]; Metabolic stability: Half life T1/2 (min), RLMs, mean and SD, three measurements): 19.7 ± 2.5 min
microsomal CLint [1, 10]: 72 ± 9 µL/min/mg
Rat alpha thrombin inhibition, slope normalized to DMSO (rat α-thrombin; [11]): 3.2 and 3.1 and 10.4
Rat alpha thrombin inhibition, slope normalized to DMSO (rat α-thrombin; peptide 1.67E+01 uM): 16.1 and 15.2 and 20.3
Rat alpha thrombin inhibition, slope normalized to DMSO (rat α-thrombin; peptide 2.08E+00 uM): 58.5 and 59.8 and 48.9
Rat alpha thrombin inhibition, slope normalized to DMSO (rat α-thrombin; peptide 3.33E+01 uM): 8.9 (2×) and 15.3
Rat alpha thrombin inhibition, slope normalized to DMSO (rat α-thrombin; peptide 4.17E+00 uM): 40.8 and 42.9 and 35.9
Rat alpha thrombin inhibition, slope normalized to DMSO (rat α-thrombin; peptide 6.67E+01 uM): 5.0 and 4.9 and 12.1
Rat alpha thrombin inhibition, slope normalized to DMSO (rat α-thrombin; peptide 8.33E+00 uM): 24.7 and 27.2 and 32.3
remaining at 8 h [2]: 98 ± 11%
SIF stability, Residual peptide Average (porcine pancreatin): 97.68
PAMPA permeability: % permeability [3]: 27 ± 1%
Papp at 50 μM [3]: 2.14 ×10⁻⁶ cm/s
Permeability% Average [3]: 27.4%
Permeability% R1 [3]: 28.09%
Permeability% R3 [3]: 26.42%
Human alpha thrombin inhibition, slope normalized to DMSO (human α-thrombin; peptide 1.02E-03 uM): 97.2 and 97.6 and 106.2
Human alpha thrombin inhibition, slope normalized to DMSO (human α-thrombin; peptide 1.04E+00 uM): 103.4 and 89.3 and 97.4
Human alpha thrombin inhibition, slope normalized to DMSO (human α-thrombin; peptide 1.27E-04 uM): 101.8 and 96.4 and 101.4
Human alpha thrombin inhibition, slope normalized to DMSO (human α-thrombin; peptide 1.30E-01 uM): 98.9 and 98.3 and 91.7
Human alpha thrombin inhibition, slope normalized to DMSO (human α-thrombin; [11]): 9.7 and 9.3 and 8.4
Human alpha thrombin inhibition, slope normalized to DMSO (human α-thrombin; peptide 1.63E-02 uM): 113.9 and 97.8 and 107.6
Human alpha thrombin inhibition, slope normalized to DMSO (human α-thrombin; peptide 1.67E+01 uM): 44.4 and 39.7 and 38.9
Human alpha thrombin inhibition, slope normalized to DMSO (human α-thrombin; peptide 2.03E-03 uM): 93.3 and 95.3 and 103.2
Human alpha thrombin inhibition, slope normalized to DMSO (human α-thrombin; peptide 2.08E+00 uM): 83.8 and 81.0 and 85.8
Human alpha thrombin inhibition, slope normalized to DMSO (human α-thrombin; peptide 2.54E-04 uM): 101.0 and 97.7 and 100.6
Human alpha thrombin inhibition, slope normalized to DMSO (human α-thrombin; peptide 2.60E-01 uM): 90.3 and 93.2 and 100.5
Human alpha thrombin inhibition, slope normalized to DMSO (human α-thrombin; peptide 3.18E-05 uM): 99.8 (2×) and 101.6
Human alpha thrombin inhibition, slope normalized to DMSO (human α-thrombin; peptide 3.26E-02 uM): 100.2 and 97.8 and 102.0
Human alpha thrombin inhibition, slope normalized to DMSO (human α-thrombin; peptide 3.33E+01 uM): 26.4 and 25.5 and 27.5
Human alpha thrombin inhibition, slope normalized to DMSO (human α-thrombin; peptide 4.07E-03 uM): 95.7 and 98.6 and 101.8
Human alpha thrombin inhibition, slope normalized to DMSO (human α-thrombin; peptide 4.17E+00 uM): 69.5 and 72.8 and 72.6
Human alpha thrombin inhibition, slope normalized to DMSO (human α-thrombin; peptide 5.09E-04 uM): 102.0 and 99.0 and 102.1
Human alpha thrombin inhibition, slope normalized to DMSO (human α-thrombin; peptide 5.21E-01 uM): 99.3 and 95.3 and 96.7
Human alpha thrombin inhibition, slope normalized to DMSO (human α-thrombin; peptide 6.36E-05 uM): 99.5 and 97.8 and 101.1
Human alpha thrombin inhibition, slope normalized to DMSO (human α-thrombin; peptide 6.51E-02 uM): 101.0 and 91.1 and 103.2
Human alpha thrombin inhibition, slope normalized to DMSO (human α-thrombin; peptide 6.67E+01 uM): 19.9 and 15.0 and 20.8
Human alpha thrombin inhibition, slope normalized to DMSO (human α-thrombin; peptide 8.14E-03 uM): 100.5 and 116.6 and 101.1
Human alpha thrombin inhibition, slope normalized to DMSO (human α-thrombin; peptide 8.33E+00 uM): 63.9 and 57.2 and 56.3
SGF stability, Residual peptide Average (porcine pepsin): 90.24
SGF stability, Residual peptide (porcine pepsin): 101.78 and 81.27 and 87.66
remaining at 8 h (porcine pepsin): 90 ± 10%
Compound: C[C@@H]1NC(=O)[C@@H](NC(=O)c2ccc(Cl)s2)CSCc2cccc(n2)CSCCNC(=O)[C@H]2CCCN(C2)C1=O [compound 30]

microsomal CLint [1, 4]: 29.5 µL/min/mg
microsomal CLint [1, 5]: 24 µL/min/mg
microsomal CLint [1, 6]: 26.2 µL/min/mg
half-life [1, 7]: 46.9 min
half-life [1, 8]: 57.7 min
half-life [1, 9]: 53 min
microsomal CLint [1, 10]: 27 ± 2 µL/min/mg
Rat alpha thrombin inhibition, slope normalized to DMSO (rat α-thrombin; [11]): 12.2 and 19.4 and 24.3
Rat alpha thrombin inhibition, slope normalized to DMSO (rat α-thrombin; peptide 1.67E+01 uM): 41.8 and 45.6 and 42.9
Rat alpha thrombin inhibition, slope normalized to DMSO (rat α-thrombin; peptide 2.08E+00 uM): 71.5 and 79.0 and 60.4
Rat alpha thrombin inhibition, slope normalized to DMSO (rat α-thrombin; peptide 3.33E+01 uM): 25.4 and 28.0 and 27.8
Rat alpha thrombin inhibition, slope normalized to DMSO (rat α-thrombin; peptide 4.17E+00 uM): 66.5 and 70.9 and 68.3
Rat alpha thrombin inhibition, slope normalized to DMSO (rat α-thrombin; peptide 6.67E+01 uM): 16.3 and 21.9 and 8.4
Rat alpha thrombin inhibition, slope normalized to DMSO (rat α-thrombin; peptide 8.33E+00 uM): 56.5 and 61.2 and 59.0
remaining at 8 h [2]: 93 ± 13%
SIF stability, Residual peptide Average (porcine pancreatin): 92.33
PAMPA permeability: % permeability [3]: 0.99 ± 0.28%
Papp at 50 μM [3]: 0.0646 ×10⁻⁶ cm/s
Permeability% Average [3]: 1.0%
Permeability% R1 [3]: 1.25%
Permeability% R3 [3]: 1.03%
Human alpha thrombin inhibition, slope normalized to DMSO (human α-thrombin; peptide 1.02E-03 uM): 98.9 and 95.1 and 89.8
Human alpha thrombin inhibition, slope normalized to DMSO (human α-thrombin; peptide 1.04E+00 uM): 90.6 and 90.5 and 80.1
Human alpha thrombin inhibition, slope normalized to DMSO (human α-thrombin; peptide 1.27E-04 uM): 100.0 and 98.9 and 93.2
Human alpha thrombin inhibition, slope normalized to DMSO (human α-thrombin; peptide 1.30E-01 uM): 69.5 and 98.5 and 88.7
Human alpha thrombin inhibition, slope normalized to DMSO (human α-thrombin; [11]): 42.6 and 48.7 and 48.9
Human alpha thrombin inhibition, slope normalized to DMSO (human α-thrombin; peptide 1.63E-02 uM): 88.4 and 95.2 and 91.8
Human alpha thrombin inhibition, slope normalized to DMSO (human α-thrombin; peptide 1.67E+01 uM): 73.5 and 78.5 and 58.5
Human alpha thrombin inhibition, slope normalized to DMSO (human α-thrombin; peptide 2.03E-03 uM): 99.2 and 96.7 and 91.4
Human alpha thrombin inhibition, slope normalized to DMSO (human α-thrombin; peptide 2.08E+00 uM): 75.3 and 92.4 and 77.6
Human alpha thrombin inhibition, slope normalized to DMSO (human α-thrombin; peptide 2.54E-04 uM): 99.2 and 99.7 and 92.0
Human alpha thrombin inhibition, slope normalized to DMSO (human α-thrombin; peptide 2.60E-01 uM): 120.3 and 99.5 and 85.9
Human alpha thrombin inhibition, slope normalized to DMSO (human α-thrombin; peptide 3.18E-05 uM): 87.6 and 101.9 and 93.6
Human alpha thrombin inhibition, slope normalized to DMSO (human α-thrombin; peptide 3.26E-02 uM): 82.7 and 95.9 and 92.3
Human alpha thrombin inhibition, slope normalized to DMSO (human α-thrombin; peptide 3.33E+01 uM): 52.1 and 61.8 and 43.1
Human alpha thrombin inhibition, slope normalized to DMSO (human α-thrombin; peptide 4.07E-03 uM): 96.4 and 99.1 and 90.2
Human alpha thrombin inhibition, slope normalized to DMSO (human α-thrombin; peptide 4.17E+00 uM): 69.9 and 89.4 and 83.9
Human alpha thrombin inhibition, slope normalized to DMSO (human α-thrombin; peptide 5.09E-04 uM): 96.6 and 98.5 and 95.0
Human alpha thrombin inhibition, slope normalized to DMSO (human α-thrombin; peptide 5.21E-01 uM): 80.4 and 93.9 and 89.5
Human alpha thrombin inhibition, slope normalized to DMSO (human α-thrombin; peptide 6.36E-05 uM): 91.9 and 97.1 and 90.0
Human alpha thrombin inhibition, slope normalized to DMSO (human α-thrombin; peptide 6.51E-02 uM): 80.1 and 98.2 and 90.6
Human alpha thrombin inhibition, slope normalized to DMSO (human α-thrombin; peptide 6.67E+01 uM): 54.5 and 43.3 and 24.5
Human alpha thrombin inhibition, slope normalized to DMSO (human α-thrombin; peptide 8.14E-03 uM): 89.1 and 102.0 and 83.1
Human alpha thrombin inhibition, slope normalized to DMSO (human α-thrombin; peptide 8.33E+00 uM): 94.4 and 79.6 and 74.6
SGF stability, Residual peptide Average (porcine pepsin): 96.69
SGF stability, Residual peptide (porcine pepsin): 100.68 and 91.38 and 98.01
remaining at 8 h (porcine pepsin): 97 ± 5%
Compound: NC(=O)NCCC[C@@H]1NC(=O)[C@@H](NC(=O)c2ccc(Cl)s2)CNC(=O)CCSCc2cccc(n2)CSCCNC1=O [compound 20]
